Measurements from US6610699B2, “Use of L-carnitine and its alkanoyl derivatives in the preparation of medicaments with anticancer activity” (Sigma-Tau Industrie Farmaceutiche Riunite S.p.A., priority 1998, dated 2003).
Read-outs that look alike come from different tables or passages of the source. Marks after values point to notes of the source that are not given here.

Experiments:
[1] = tested on: LOVO human colon cancer; conditions: ALC 100 mg/kg qdx18 alone
Description: Cell cultures of LOVO human colon cancer, transplanted in hairless mice, were used.
The tumour was inoculated in solid fragments in both flanks of the mice (day 0).
The inoculated tumours were measured with a calliper and when a mean tumour weight of 100 mg was reached (day 7), the animals were divided into 4 groups of 5 animals each according to the following schedule:
On the same day, ALC treatment was initiated and was continued for 18 consecutive days (qdx18) (groups 3 and 4). ALC was administered at the dose of 100 mg/kg with an administration volume of 25 ml/kg.
In the course of the treatment and in the following three weeks at fortnightly intervals, the tumours were measured and tumour volume inhibition was calculated (TVI%, calculated as 100-(mean weight of tumours treated/mean weight of control tumours×100)) as obtained with the various treatments.

[2] = Taxol-induced weight loss: body weight; format: in vivo, rat; conditions: for Body weight, BASAL: prior to starting treatment; for Body weight, % vs BASALE / Body weight, % vs SHAM: 5 weeks; for Body weight, 5 WEEKS: end of treatment
Description: The animals used in the preceding experimental model were weighed prior to starting treatment (basal values) and at the end of treatment.

[3] = tested on: BALB/c mice
[4] = taxol i.v. 54 mg/kg/15 ml, sacrifice after 3 days' recovery from last taxol administration
[5] = taxol i.v., sacrifice 6 hours after fourth taxol administration

Compound	effect on tumour growth (in words) [1]	Body weight, BASAL ([2]; taxol 8 mg/kg groups)	Body weight, % vs BASALE ([2]; taxol 8 mg/kg)	Body weight, % vs SHAM ([2]; taxol 8 mg/kg)	Body weight, 5 WEEKS ([2]; taxol 8 mg/kg)	Body weight, BASAL ([2]; taxol 16 mg/kg groups)	Body weight, % vs BASALE ([2]; taxol 16 mg/kg)	Body weight, % vs SHAM ([2]; taxol 16 mg/kg)	Body weight, 5 WEEKS ([2]; taxol 16 mg/kg)	Absolute neutrophils [3, 4]	Lymphocytes [3, 4]	Neutrophils [3, 4]	Absolute neutrophils [3, 5]	Lymphocytes [3, 5]	Neutrophils [3, 5]
CC(=O)O[C@H](CC(=O)[O-])C[N+](C)(C)C [ALC, acetyl L-carnitine]	no effect on tumour growth	–	–	–	–	–	–	–	–	–	–	–	–	–	–
CC(=O)O[C@H]1C(=O)[C@@]2(C)[C@H]([C@H](OC(=O)c3ccccc3)[C@]3(O)C[C@H](OC(=O)[C@H](O)[C@@H](NC(=O)c4ccccc4)c4ccccc4)C(C)=C1C3(C)C)[C@]1(OC(C)=O)CO[C@@H]1C[C@@H]2O [Taxol, paclitaxel, reference compound]	–	210 ± 9.1	+13** %	+1%	237 ± 20.8	212 ± 12.5	−15** %	−23● %	180 ± 16.0	330 ± /mm^3	93.0%	7.0%	229 ± /mm^3	97.1%	****2.9%
